Measurements from US9550782B2, “Compounds and methods for treating diabetes” (Medivation Technologies, Inc., priority 2011, dated 2017).
Where “and” joins values, the source holds several entries; their conditions need not be identical. Identical values can stand only once. One block for each molecule: values may come before it.

What was measured:
[1] = biological target: T1, human recombinant adrenergic α2B receptor (Homo sapiens, UniProt P18089); test: Radioligand binding, adrenergic α2B ([3H]Rauwolscine); conditions: for Percentage inhibition of ligand binding, Adrenergic α2B (0.03 μM): repeat datapoints each shown
T1 construct: expressed in transfected cells; host or cells: CHO-K1
T1 sequence (P18089 1-450): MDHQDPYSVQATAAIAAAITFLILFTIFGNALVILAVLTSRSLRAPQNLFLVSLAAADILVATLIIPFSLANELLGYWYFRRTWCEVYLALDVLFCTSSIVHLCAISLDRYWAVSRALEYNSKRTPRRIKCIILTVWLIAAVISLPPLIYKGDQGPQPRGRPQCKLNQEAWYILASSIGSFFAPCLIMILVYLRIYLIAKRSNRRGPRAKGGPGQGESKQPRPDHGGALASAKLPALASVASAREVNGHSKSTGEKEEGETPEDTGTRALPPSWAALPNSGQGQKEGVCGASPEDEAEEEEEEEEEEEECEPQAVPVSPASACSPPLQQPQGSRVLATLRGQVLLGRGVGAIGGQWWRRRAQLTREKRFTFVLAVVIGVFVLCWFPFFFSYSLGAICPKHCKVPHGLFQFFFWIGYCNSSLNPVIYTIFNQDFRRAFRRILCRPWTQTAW
In short: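 Values are percent inhibition of specific radioligand binding. The receptor, expressed in CHO-K1 cells, was exposed to 2.5 nM [3H]Rauwolscine at 25° C for 60 min, with 10 μM Prazosin marking non-specific binding.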

[2] = biological target: T2, human recombinant adrenergic α2A receptor (Homo sapiens, UniProt P08913); test: Radioligand binding, adrenergic α2A ([3H]MK-912); conditions: [3H]MK-912; for Percentage inhibition of ligand binding, Adrenergic α2A (0.1 μM): repeat datapoints each shown
T2 construct: expressed in transfected cells; host or cells: insect Sf9 cells
T2 sequence (P08913 1-465): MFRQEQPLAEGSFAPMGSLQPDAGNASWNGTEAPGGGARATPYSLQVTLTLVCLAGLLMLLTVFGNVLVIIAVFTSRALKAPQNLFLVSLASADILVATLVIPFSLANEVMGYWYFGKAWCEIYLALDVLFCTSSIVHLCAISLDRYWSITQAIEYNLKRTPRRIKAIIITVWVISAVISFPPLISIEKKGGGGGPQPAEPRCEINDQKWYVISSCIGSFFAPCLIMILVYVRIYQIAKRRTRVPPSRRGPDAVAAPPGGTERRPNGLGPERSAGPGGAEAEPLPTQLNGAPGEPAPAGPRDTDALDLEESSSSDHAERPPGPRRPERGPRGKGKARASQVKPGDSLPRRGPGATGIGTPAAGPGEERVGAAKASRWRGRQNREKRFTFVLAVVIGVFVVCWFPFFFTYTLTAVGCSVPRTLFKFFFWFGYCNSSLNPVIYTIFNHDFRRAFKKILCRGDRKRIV
In short: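 Receptor expressed in Sf9 cells, in 50 mM Tris-HCl pH 7.4, 12.5 mM MgCl2, 2 mM EDTA; compounds incubated with 1 nM [3H]MK-912 for 60 min at 25 °C.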

[3] = biological target: T3, rat adrenergic α1B receptor (Rattus norvegicus, UniProt P15823); test: Radioligand binding, adrenergic α1B ([3H]Prazosin); parameters: species or system Wistar Rat; conditions: for Percentage inhibition of ligand binding, Adrenergic α1B (0.1 μM): repeat datapoints each shown
T3 construct: rat adrenergic α1B receptor obtained from Wistar Rat liver; from tissue; host or cells: Wistar rat liver
T3 sequence (P15823 1-515): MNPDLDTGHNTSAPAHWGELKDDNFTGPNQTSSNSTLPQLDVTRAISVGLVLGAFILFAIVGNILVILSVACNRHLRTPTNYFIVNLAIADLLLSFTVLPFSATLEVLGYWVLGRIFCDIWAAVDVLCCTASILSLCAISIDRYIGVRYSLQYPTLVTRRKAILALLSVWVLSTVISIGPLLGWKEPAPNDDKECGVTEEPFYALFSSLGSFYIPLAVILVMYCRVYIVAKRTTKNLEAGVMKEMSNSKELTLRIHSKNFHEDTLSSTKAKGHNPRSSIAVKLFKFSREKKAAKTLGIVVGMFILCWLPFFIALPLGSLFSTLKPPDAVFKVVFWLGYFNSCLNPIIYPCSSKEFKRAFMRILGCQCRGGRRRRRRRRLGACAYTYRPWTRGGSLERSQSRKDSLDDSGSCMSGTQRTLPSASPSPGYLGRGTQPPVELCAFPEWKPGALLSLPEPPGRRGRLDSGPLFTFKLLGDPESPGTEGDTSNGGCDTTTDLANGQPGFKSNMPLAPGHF
In short: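 Rat α1B receptor from Wistar rat liver was incubated with 0.25 nM [3H]prazosin for 60 min at 25 °C in 50 mM Tris-HCl, pH 7.4, 0.5 mM EDTA. Non-specific binding was defined with 10 μM phentolamine. Bound radioligand was measured by filtration and counting, reported as percent inhibition of specific binding.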

Percentage inhibition of ligand binding, Adrenergic α2B ([1]; compound at 0.03 μM, 0.03 µM): 24% | Percentage inhibition of ligand binding, Adrenergic α2A ([2]; compound at 0.1 μM, 0.1 µM): −5% | Percentage inhibition of ligand binding, Adrenergic α1B ([3]; compound at 0.1 μM): 7%
SMILES: OCCN1CCc2c(c3cc(Cl)ccc3n2CC(O)c2cccnc2)C1 (single isomer, unassigned) [II-94b]

Percentage inhibition of ligand binding, Adrenergic α2B ([1]; compound at 0.03 μM, 0.03 µM): 7% | Percentage inhibition of ligand binding, Adrenergic α2A ([2]; compound at 0.1 μM, 0.1 µM): 16% | Percentage inhibition of ligand binding, Adrenergic α1B ([3]; compound at 0.1 μM, 0.1 µM): 5%
SMILES: Cc1cnc2c(c1)c1c(n2CC(C)(O)c2cccnc2)CCN(C)C1 (single isomer, unassigned) [II-99b]

Percentage inhibition of ligand binding, Adrenergic α2B (0.03 μM) ([1]; compound at 0.03 μM, 0.03 µM): 22% | Percentage inhibition of ligand binding, Adrenergic α2A (0.1 μM) ([2]; compound at 0.1 μM, 0.1 µM): 15% | Percentage inhibition of ligand binding, Adrenergic α1B (0.1 μM) ([3]; compound at 0.1 μM, 0.1 µM): 39%
SMILES: Cc1ccc2c(c1)c1c(n2CC(O)c2ccncc2)CN(C)CC1 (centres unmarked) [8a]

Percentage inhibition of ligand binding, Adrenergic α2B (0.03 μM) ([1]; compound at 0.03 μM, 0.03 µM): 14% | Percentage inhibition of ligand binding, Adrenergic α2A (0.1 μM) ([2]; compound at 0.1 μM, 0.1 µM): −6% | Percentage inhibition of ligand binding, Adrenergic α1B (0.1 μM) ([3]; compound at 0.1 μM, 0.1 µM): 25%
SMILES: Cc1ccc2c(c1)c1c(n2CC(C)(O)c2cccnc2)CN(C)CC1 (centres unmarked) [14b, 1-(2,6-dimethyl-1,2,3,4-tetrahydro-3-carbolin-9-yl)-2-pyridin-3-yl-propan-2-ol]

Percentage inhibition of ligand binding, Adrenergic α2B (0.03 μM) ([1]; compound at 0.03 μM, 0.03 µM): 46% | Percentage inhibition of ligand binding, Adrenergic α2A (0.1 μM) ([2]; compound at 0.1 μM, 0.1 µM): 10% | Percentage inhibition of ligand binding, Adrenergic α1B (0.1 μM) ([3]; compound at 0.1 μM, 0.1 µM): 14%
SMILES: Cc1ccc2c(c1)c1c(n2CC(C)(O)c2ccc(C)nc2)CCN(C)C1 (centres unmarked) [29b]

More lines, now with the values behind:

SMILES: Cc1ccc2c(c1)c1c(n2CC(C)(O)c2ccc(C)nc2)CN(C)CC1 (single isomer, unassigned) [196a]
Percentage inhibition of ligand binding, Adrenergic α2B ([1]; 0.03 μM compound, 0.03 µM): 93% and 103% | Percentage inhibition of ligand binding, Adrenergic α2A ([2]; 0.03 μM compound): 37% | Percentage inhibition of ligand binding, Adrenergic α2A ([2]; 0.1 μM compound, 0.1 µM): 58% and 71% | Percentage inhibition of ligand binding, Adrenergic α1B ([3]; 0.03 μM compound): 30% | Percentage inhibition of ligand binding, Adrenergic α1B ([3]; 0.1 μM compound, 0.1 µM): 54.6%

SMILES: OCCN1CCc2c(c3cc(Cl)ccc3n2CC(O)c2ccncc2)C1 (single isomer, unassigned) [II-93a]
Percentage inhibition of ligand binding, Adrenergic α2B ([1]; compound at 0.03 μM): 24% | Percentage inhibition of ligand binding, Adrenergic α2A ([2]; compound at 0.1 μM, 0.1 µM): 7% | Percentage inhibition of ligand binding, Adrenergic α1B ([3]; compound at 0.1 μM): 6%

SMILES: Cc1cnc2c(c1)c1c(n2CC(C)(O)c2cccnc2)CCN(C)C1 (single isomer, unassigned) [II-99a]
Percentage inhibition of ligand binding, Adrenergic α2B ([1]; compound at 0.03 μM, 0.03 µM): 49% | Percentage inhibition of ligand binding, Adrenergic α2A ([2]; compound at 0.1 μM, 0.1 µM): 24% | Percentage inhibition of ligand binding, Adrenergic α1B ([3]; compound at 0.1 μM, 0.1 µM): 12%

SMILES: Cc1cnc2c(c1)c1c(n2CC(O)c2ccc(C)nc2)CCN(C)C1 (single isomer, unassigned) [II-100b]
Percentage inhibition of ligand binding, Adrenergic α2B ([1]; compound at 0.03 μM, 0.03 µM): 1% | Percentage inhibition of ligand binding, Adrenergic α2A ([2]; compound at 0.1 μM, 0.1 µM): 4% | Percentage inhibition of ligand binding, Adrenergic α1B ([3]; compound at 0.1 μM): 24%

SMILES: CN1CCc2c(c3cc(Cl)ccc3n2CC(C)(O)c2cccnc2)C1 (centres unmarked) [31b]
Percentage inhibition of ligand binding, Adrenergic α2B (0.03 μM) ([1]; compound at 0.03 μM, 0.03 µM): 36% | Percentage inhibition of ligand binding, Adrenergic α2A (0.1 μM) ([2]; compound at 0.1 μM, 0.1 µM): 14% | Percentage inhibition of ligand binding, Adrenergic α1B (0.1 μM) ([3]; compound at 0.1 μM, 0.1 µM): 3%

SMILES: Cc1cnc2c(c1)c1c(n2CCc2ccc(C)nc2)CCN2CCCC12 (centres unmarked) [74b, 10-methyl-7-(2-(6-methylpyridin-3-yl)ethyl)-2,3,5,6,7,1c-hexahydro-1H-pyrido[3′,2′:4,5]pyrrolo[2,3-g]indolizine]
Percentage inhibition of ligand binding, Adrenergic α2B (0.03 μM) ([1]; compound at 0.03 μM, 0.03 µM): 27% | Percentage inhibition of ligand binding, Adrenergic α2A (0.1 μM) ([2]; compound at 0.1 μM, 0.1 µM): 14% | Percentage inhibition of ligand binding, Adrenergic α1B (0.1 μM) ([3]; compound at 0.1 μM, 0.1 µM): 28%
